± gives the expanded uncertainty stated by the source.

From the NIST ThermoML archive (doi:10.1016/j.jct.2012.08.033) come the findings set out here.

Data set [1] in a line: xn = mol fraction of the nth substance listed. Particulars: Liquid, vibrating tube, x1 = 1.
For data set [2] the following is noted: Liquid, vibrating tube.

A word on the mass density: it is the mass of a sample divided by its volume. As for `O` [water] + C1CCOC1, the mass density in data set [1] (293.28 K, 100.7 kPa) worked out at 998.33 ± 2 kg/m3; in data set [1] (313.3 K, 78.5 kPa), 992.09 ± 2 kg/m3.

For `O` [water], the mass density came to 998.33 ± 2 kg/m3 in data set [2] (293.28 K, 100.7 kPa) and 992.09 ± 2 kg/m3 in data set [2] (313.3 K, 78.5 kPa).
